We go through 1 compound from PMC10382584, “Macrocyclization of linear molecules by deep learning to facilitate macrocyclic drug candidates discovery” (Nature Communications, 2023).

Molecules are shown by their SMILES.

Common to all, as to assay: biochemical
What all share (design): DiscoveRx KINOMEscan competition binding, percent of DMSO control signal at 100 nM
Common to all, as to conditions: read-out: Fig. 4a / Percent Control / Compound 1; percent of DMSO control, competition binding

Test [1] deals with T1, ABL1(E255K)-phosphorylated (Homo sapiens, UniProt P00519, E255K).
T1 construct: phosphorylated

The target in test [2] is AURKA (Homo sapiens, UniProt O14965).
The target in test [3] is BMPR1B (Homo sapiens, UniProt O00238).
Test [4] deals with T2, CDC2L5 (Homo sapiens, UniProt Q14004).
T2 construct: gene CDK13

Test [5] concerns the target EGFR(E746-A750del) (Homo sapiens, UniProt P00533, DEL746-750).
The target in test [6] is T3, ERK4 (Homo sapiens, UniProt P31152).
T3 construct: gene MAPK4
T3 sequence (P31152 whole entry): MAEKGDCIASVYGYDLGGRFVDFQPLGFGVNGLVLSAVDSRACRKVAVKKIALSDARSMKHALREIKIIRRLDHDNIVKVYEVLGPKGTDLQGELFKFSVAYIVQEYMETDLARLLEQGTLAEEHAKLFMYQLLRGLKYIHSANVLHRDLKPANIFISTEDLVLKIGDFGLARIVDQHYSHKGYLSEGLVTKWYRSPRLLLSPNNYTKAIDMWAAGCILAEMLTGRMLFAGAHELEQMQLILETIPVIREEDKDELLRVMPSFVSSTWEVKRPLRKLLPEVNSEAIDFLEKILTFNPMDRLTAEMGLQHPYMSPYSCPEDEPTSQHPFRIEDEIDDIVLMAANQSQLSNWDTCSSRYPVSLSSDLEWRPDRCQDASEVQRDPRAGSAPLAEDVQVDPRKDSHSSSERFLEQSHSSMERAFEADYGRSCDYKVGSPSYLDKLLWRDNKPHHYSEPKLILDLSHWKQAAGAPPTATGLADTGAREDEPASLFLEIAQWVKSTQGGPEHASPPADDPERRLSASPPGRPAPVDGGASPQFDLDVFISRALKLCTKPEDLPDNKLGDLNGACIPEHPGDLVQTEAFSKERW

The target of test [7] is FGFR3 (Homo sapiens, UniProt P22607).
Sequence of FGFR3 (P22607 whole entry): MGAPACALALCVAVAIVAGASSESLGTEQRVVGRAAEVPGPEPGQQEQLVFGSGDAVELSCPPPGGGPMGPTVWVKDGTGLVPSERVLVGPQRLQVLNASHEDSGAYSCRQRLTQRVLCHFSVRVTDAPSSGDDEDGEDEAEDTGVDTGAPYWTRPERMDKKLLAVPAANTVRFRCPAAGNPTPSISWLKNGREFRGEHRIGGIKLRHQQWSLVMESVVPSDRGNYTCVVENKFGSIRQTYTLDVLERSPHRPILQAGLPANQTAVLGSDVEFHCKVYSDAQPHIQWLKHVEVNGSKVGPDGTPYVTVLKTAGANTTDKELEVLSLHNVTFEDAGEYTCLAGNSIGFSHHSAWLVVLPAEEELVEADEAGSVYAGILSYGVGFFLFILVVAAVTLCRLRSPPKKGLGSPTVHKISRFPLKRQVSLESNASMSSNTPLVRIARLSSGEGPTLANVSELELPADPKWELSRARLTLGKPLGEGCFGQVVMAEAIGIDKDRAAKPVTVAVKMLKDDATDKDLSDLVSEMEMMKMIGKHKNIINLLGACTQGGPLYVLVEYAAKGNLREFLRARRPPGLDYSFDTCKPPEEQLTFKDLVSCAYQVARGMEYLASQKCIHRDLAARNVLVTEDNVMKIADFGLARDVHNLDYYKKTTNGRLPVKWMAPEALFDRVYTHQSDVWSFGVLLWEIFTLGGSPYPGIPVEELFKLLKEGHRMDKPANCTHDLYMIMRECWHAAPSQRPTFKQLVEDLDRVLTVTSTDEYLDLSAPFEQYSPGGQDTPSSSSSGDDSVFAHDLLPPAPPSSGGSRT
In test [8] the target is FLT3(D835Y) (Homo sapiens, UniProt P36888, D835Y).
Test [9] has as its target HIPK3 (Homo sapiens, UniProt Q9H422).
Test [10] deals with HUNK (Homo sapiens, UniProt P57058).
Sequence of HUNK (P57058 whole entry): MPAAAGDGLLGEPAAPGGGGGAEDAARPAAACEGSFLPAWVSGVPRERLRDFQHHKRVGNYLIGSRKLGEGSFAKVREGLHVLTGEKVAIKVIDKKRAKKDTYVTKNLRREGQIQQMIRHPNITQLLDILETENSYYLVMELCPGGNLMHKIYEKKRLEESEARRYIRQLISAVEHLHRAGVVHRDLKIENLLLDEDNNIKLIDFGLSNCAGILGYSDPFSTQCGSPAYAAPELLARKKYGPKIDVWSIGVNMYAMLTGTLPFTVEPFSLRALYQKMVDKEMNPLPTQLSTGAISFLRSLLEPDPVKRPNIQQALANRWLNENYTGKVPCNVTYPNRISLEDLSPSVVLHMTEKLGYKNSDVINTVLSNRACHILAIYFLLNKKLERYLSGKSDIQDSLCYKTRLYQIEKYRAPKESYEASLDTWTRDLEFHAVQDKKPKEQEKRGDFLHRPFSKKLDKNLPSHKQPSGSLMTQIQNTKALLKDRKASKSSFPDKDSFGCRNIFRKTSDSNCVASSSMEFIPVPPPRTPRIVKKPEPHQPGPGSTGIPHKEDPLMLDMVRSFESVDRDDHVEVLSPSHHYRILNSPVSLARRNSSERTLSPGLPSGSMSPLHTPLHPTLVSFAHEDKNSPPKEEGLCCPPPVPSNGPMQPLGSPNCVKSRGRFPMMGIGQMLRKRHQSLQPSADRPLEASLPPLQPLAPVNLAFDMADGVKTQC
The target of test [11] is T4, JAK1(JH1domain-catalytic) (Homo sapiens, UniProt P23458).
T4 construct: JH1domain-catalytic

The target in test [12] is T5, JAK1(JH2domain-pseudokinase) (Homo sapiens, UniProt P23458).
T5 construct: JH2domain-pseudokinase

The target of test [13] is MAPKAPK2 (Homo sapiens, UniProt P49137).
Sequence of MAPKAPK2 (P49137 whole entry): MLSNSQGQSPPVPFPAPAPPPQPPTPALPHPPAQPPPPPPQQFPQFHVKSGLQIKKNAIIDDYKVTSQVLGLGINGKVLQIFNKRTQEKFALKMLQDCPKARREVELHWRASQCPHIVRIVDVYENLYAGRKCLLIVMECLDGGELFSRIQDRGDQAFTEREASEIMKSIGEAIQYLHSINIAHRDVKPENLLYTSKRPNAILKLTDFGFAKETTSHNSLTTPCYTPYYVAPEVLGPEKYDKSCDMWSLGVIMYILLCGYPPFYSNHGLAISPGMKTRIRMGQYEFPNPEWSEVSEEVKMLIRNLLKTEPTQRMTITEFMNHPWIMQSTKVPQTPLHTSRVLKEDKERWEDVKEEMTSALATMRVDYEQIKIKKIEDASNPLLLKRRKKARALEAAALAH
Test [14] has as its target T6, MEK5 (Homo sapiens, UniProt Q13163).
T6 construct: gene MAP2K5

The target of test [15] is MTOR (Homo sapiens, UniProt P42345).
For test [16], the target named is PAK2 (Homo sapiens, UniProt Q13177).
Test [17] has as its target PRKCE (Homo sapiens, UniProt Q02156).
Test [18] has as its target RET(V804M) (Homo sapiens, UniProt P07949, V804M).
The target of test [19] is RIOK3 (Homo sapiens, UniProt O14730).
Sequence of RIOK3 (O14730 whole entry): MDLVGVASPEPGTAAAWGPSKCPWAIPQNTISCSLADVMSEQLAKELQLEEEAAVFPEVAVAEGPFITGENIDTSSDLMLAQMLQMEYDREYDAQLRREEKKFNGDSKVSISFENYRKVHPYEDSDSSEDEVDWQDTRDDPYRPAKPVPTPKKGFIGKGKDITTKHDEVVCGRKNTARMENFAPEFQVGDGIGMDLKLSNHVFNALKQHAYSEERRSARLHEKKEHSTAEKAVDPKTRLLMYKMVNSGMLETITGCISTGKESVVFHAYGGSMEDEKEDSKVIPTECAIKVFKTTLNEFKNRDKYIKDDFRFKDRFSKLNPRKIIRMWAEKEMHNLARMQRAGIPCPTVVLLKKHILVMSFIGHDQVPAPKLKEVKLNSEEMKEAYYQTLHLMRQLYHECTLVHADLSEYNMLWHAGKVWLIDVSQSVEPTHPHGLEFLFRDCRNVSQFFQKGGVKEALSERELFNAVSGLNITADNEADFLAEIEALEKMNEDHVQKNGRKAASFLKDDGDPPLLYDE
The target in test [20] is T7, RSK4(Kin.Dom.1-N-terminal) (Homo sapiens, UniProt Q9UK32).
T7 construct: gene RPS6KA6; Kin.Dom.1-N-terminal

Test [21] concerns the target STK16 (Homo sapiens, UniProt O75716).
For test [22], the target named is STK36 (Homo sapiens, UniProt Q9NRP7).
The target in test [23] is TTK (Homo sapiens, UniProt P33981).
Sequence of TTK (P33981 whole entry): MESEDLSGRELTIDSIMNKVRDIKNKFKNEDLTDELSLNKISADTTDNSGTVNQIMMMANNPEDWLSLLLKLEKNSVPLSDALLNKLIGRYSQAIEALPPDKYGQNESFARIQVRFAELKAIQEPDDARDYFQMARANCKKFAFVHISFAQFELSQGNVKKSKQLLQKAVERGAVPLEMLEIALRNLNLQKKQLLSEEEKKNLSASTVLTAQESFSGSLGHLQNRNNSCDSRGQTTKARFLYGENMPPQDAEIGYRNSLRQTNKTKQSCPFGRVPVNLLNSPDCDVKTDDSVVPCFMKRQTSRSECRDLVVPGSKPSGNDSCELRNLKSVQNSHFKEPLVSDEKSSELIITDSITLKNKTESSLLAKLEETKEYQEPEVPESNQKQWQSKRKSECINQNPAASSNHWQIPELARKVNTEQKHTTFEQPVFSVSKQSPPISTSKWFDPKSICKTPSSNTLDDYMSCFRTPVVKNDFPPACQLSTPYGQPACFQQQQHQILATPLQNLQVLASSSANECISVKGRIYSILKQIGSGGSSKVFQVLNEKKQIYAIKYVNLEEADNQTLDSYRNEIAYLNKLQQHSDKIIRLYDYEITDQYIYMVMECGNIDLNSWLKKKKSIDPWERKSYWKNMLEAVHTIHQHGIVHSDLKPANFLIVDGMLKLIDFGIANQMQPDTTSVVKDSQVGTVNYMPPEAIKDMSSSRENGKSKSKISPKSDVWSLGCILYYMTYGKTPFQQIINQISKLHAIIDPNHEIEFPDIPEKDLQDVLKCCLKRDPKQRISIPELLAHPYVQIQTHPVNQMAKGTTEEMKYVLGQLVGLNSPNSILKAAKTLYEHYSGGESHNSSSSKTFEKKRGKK
For test [24], the target named is WNK3 (Homo sapiens, UniProt Q9BYP7).
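Note: KINOMEscan kinase panel binding assay, signal normalized between DMSO as 100% and a positive control compound as 0%.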

Sequence of RET(V804M) (P07949 whole entry V804M): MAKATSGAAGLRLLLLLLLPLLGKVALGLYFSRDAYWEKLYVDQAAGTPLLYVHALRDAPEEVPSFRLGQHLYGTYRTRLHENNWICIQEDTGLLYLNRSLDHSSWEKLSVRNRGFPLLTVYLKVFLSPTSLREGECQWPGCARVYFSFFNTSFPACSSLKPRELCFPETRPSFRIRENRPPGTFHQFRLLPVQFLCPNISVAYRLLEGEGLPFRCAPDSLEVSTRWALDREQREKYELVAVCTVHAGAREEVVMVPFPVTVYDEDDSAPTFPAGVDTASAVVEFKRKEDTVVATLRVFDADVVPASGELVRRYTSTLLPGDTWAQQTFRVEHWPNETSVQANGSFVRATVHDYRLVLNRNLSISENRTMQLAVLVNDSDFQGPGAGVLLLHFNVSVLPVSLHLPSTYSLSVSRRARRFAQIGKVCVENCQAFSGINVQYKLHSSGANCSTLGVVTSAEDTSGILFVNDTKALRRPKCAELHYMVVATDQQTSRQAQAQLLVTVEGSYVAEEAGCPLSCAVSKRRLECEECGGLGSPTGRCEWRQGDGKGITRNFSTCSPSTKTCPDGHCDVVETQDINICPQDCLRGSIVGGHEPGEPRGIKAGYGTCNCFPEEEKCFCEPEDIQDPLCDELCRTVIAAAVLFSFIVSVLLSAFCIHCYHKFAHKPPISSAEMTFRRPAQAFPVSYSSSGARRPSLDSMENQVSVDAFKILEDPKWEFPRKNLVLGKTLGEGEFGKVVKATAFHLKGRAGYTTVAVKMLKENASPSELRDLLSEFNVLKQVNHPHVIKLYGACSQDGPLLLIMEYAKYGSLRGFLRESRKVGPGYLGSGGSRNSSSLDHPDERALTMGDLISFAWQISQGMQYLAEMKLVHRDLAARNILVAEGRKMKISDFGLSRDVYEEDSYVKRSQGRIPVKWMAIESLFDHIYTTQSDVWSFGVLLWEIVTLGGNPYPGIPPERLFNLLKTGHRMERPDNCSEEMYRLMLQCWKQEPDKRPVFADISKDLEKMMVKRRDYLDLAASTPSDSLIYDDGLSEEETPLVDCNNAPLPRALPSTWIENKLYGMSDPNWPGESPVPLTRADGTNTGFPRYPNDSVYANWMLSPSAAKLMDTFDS

As for `Cc1cnc2nc1Nc1cccc(c1)COCc1cc(ccc1OCCN1CCCC1)N2` [Compound 1], the remaining binding at 0.1 µM in [1] amounted to 79%; in test [2], 38%; in [3], 63%; in [4] it was 81%; in [5], 89%; in test [6] it was 81%. For the same compound, the remaining binding at 0.1 µM came out at 95% in test [7]; 14% in [8]; 87% in test [9]; 100% in [10]; 32% in test [11]; 36% in [12]. In addition, the remaining binding at 0.1 µM in test [13] turned out to be 100%; in test [14], 22%; in test [15], 82%; in test [16], 100%; in test [17], 98%; in [18], 80%. Also, the remaining binding at 0.1 µM in test [19] turned out to be 79%; in test [20] it was 64%; in [21], 18%; in test [22], 97%; in [23], 95%; in [24] it was 95%.
